Reference: paper PMC3276575, “Structural and Functional Insights into the Pilotin-Secretin Complex of the Type II Secretion System” (PLoS Pathogens, 2012)
Peptide text beside a SMILES is read from it.

Legend:
[1] = molecular target: T1, OutS_Q114A (Dickeya dadantii, UniProt Q01567, Q114A); assay: Fluorescence quenching titration, secretin peptide binding to pilotin mutant Q114A; conditions: fluorescence at 340 nm, excitation 290 nm, 15°C, 1 µM pilotin
T1 construct: made in house; host or cells: E. coli (periplasm)
T1 sequence (Q01567 21-133 Q114A): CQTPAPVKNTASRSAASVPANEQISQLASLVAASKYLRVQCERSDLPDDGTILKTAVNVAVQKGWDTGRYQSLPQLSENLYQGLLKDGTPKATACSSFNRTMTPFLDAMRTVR
Description: (§1) The pET-20b(+) plasmid expressing non-lipidated OutS (residues 26 to 132) fused to N-terminal PelB signal peptide has been constructed previously at a manner as the sequence of mature non-lipidated OutS after cleavage by the signal peptidase LepB is: MDP^26VKNT etc. To fuse a C-terminal 6His tag to non-lipidated OutS, SalI site was introduced at the end of outS sequence by using the primer (5′-ctt gac gcc atg cgc acc gtc gac tga ggg gga agc aac tgc) and the reverse complementary one (mutated bases are underlined). Then, by SalI/XhoI digestion the sequence coding for non-lipidated OutS was fused with that coding for 6His. Mutants of OutS were made using Strategene QuikChange and confirmed by sequencing.
(§2) Fluorescence data were collected using a Jasco FP-6300 Spectrofluorometer. […] Emission spectra were recorded at 15°C in steps of 2 nm from 310 to 400 nm. The fluorescence signal at 340 nm was plotted to calculate K d. Pilotin spectra was measured at 1 µM. […]
(§3) The Kd was determined by fitting the following equation: […]
(§4) where [PS] is the concentration of the pilotin/secretin complex, [P0] is the total concentration of the pilotin (1 µM), [S0] is the total concentration of the secretin peptide, and Kd is the dissociation constant. The observed fluorescence signal is then given by: F = FPS[PS] + FP[P]; as there are no tryptophans in the secretin peptide. […]

[2] = molecular target: T2, OutS_L96A (Dickeya dadantii, UniProt Q01567, L96A); assay: Fluorescence quenching titration, secretin peptide binding to pilotin mutant L96A; conditions: fluorescence at 340 nm, excitation 290 nm, 15°C, 1 µM pilotin
T2 construct: made in house; host or cells: E. coli (periplasm)
T2 sequence (Q01567 21-133 L96A): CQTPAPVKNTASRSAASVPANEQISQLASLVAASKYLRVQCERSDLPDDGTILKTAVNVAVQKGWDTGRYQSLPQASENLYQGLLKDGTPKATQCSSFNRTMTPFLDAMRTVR
Description: as §1, §2, §3, §4

[3] = molecular target: T3, OutS_L100A (Dickeya dadantii, UniProt Q01567, L100A); assay: Fluorescence quenching titration, secretin peptide binding to pilotin mutant L100A; conditions: fluorescence at 340 nm, excitation 290 nm, 15°C, 1 µM pilotin
T3 construct: made in house; host or cells: E. coli (periplasm)
T3 sequence (Q01567 21-133 L100A): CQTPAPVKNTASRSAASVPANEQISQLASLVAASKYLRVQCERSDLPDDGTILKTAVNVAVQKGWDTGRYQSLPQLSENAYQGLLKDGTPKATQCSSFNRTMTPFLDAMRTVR
Description: as §1, §2, §3, §4

[4] = molecular target: T4, OutS_S49R (Dickeya dadantii, UniProt Q01567, S49R); assay: Fluorescence quenching titration, secretin peptide binding to pilotin mutant S49R; conditions: fluorescence at 340 nm, excitation 290 nm, 15°C, 1 µM pilotin
T4 construct: made in house; host or cells: E. coli (periplasm)
T4 sequence (Q01567 21-133 S49R): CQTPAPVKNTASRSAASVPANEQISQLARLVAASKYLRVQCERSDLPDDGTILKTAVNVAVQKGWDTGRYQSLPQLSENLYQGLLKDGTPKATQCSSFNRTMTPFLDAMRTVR
Description: as §1, §2, §3, §4

[5] = tested on: pspA-lacZ; assay: pspA-lacZ induction (β-galactosidase activity); type: cell-based; conditions: E. coli MC3, 12 h at 30°C in LB
Description: (§5) Figure 4 In vivo determination of secretin interactions with pilotin. Removal of the extreme C-terminal region of the secretin results in mislocalization of the secretin to the inner membrane (A) Sequence of the C-terminus of Dickeya dadantii secretin (OutD) along with the secondary structure prediction for this region; the predicted three helices are marked “H”. The sequences of the three secretin deletion mutants (OutDΔC1 to OutDΔC3) and the C-terminal secretin peptides used are shown. (B) Stabilization of truncated derivatives of the secretin (OutD) by pilotin (OutS) in vivo. E. coli MC3 cells expressing an OutD derivative (indicated above) and either OutS (+) or empty pACT3 vector (−) were grown for 12 h at 30°C in LB medium and then analyzed by immunoblotting with OutD antibodies. In the same cultures, β-galactosidase activity was assessed to estimate expression of pspA-lacZ. An elevated level of pspA reflects mislocalization of the corresponding secretin derivative to the inner membrane. […] The whole membrane fraction from E. coli NM522 cells coexpressing the indicated secretin derivatives and pilotin was separated by flotation sucrose gradient centrifugation and analyzed by immunoblotting with OutD- antibodies or stained with Coomassie G-250 to detect the major porins, which reflect the position of the outer membrane. […]

[6] = tested on: inner membrane; conditions: ref [21]; cited from earlier work
Description: The type II secretion system spans both the inner and outer bacterial membranes, [18]. It consists of an inner membrane subcomplex, periplasmic pseudopilins and the outer membrane secretin [19]. There have been considerable recent advances in our understanding of the T2SS secretin. First the structure of the N-terminal periplasmic domains N0, N1, and N2 in complex with a nanobody was elucidated (PDB code 3EZJ) and secondly a cryo EM reconstruction of the secretin itself has been described. In the absence of pilotin the D. dadantii secretin (OutD) mislocates to the inner ...

[7] = tested on: E. coli NM522 cells; assay: Membrane location by flotation sucrose gradient centrifugation; type: cell-based; conditions: with pilotin OutS, immunoblot
Description: as §5

CC[C@H](C)[C@H](NC(=O)[C@H](CO)NC(=O)[C@H](CO)NC(=O)[C@H](CCC(N)=O)NC(=O)[C@@H](NC(=O)[C@H](CCC(N)=O)NC(=O)[C@H](CCCNC(=N)N)NC(=O)[C@H](Cc1ccccc1)NC(=O)[C@@H](NC(=O)[C@H](Cc1ccc(O)cc1)NC(=O)[C@@H](N)[C@@H](C)O)[C@@H](C)O)C(C)C)C(=O)N[C@@H](CO)C(=O)N[C@@H](CC(=O)O)C(=O)N[C@@H](Cc1ccccc1)C(=O)N[C@@H](Cc1ccc(O)cc1)C(=O)N[C@@H](CCCCN)C(=O)N1CCC[C@H]1C(=O)N[C@@H](CCC(=O)O)C(=O)O [18 residue secretin peptide] (H-TYTFRQVQSSISDFYKPE-OH)
Kd [1]: 1100 ± 350 nM
Kd [2]: 5300 ± 1200 nM
Kd [3]: 2100 ± 500 nM
Kd [4]: > 200000 nM

B1: OutD: Dickeya dadantii secretin of the type II secretion system, UniProt Q01565 (protein, UniProt Q01565 28-710, looked up)
Secretin OutD: AEFSASFKGTDIQEFINTVSKNLNKTVIIDPTVRGTISVRSYDMMNEGQYYQFFLSVLDVYGFSVVPMDNGVLKVIRSKDAKSSSIPLANNEQPGIGDELVTRVVPLNNVAARDLAPLLRQLNDNAGAGTVVHYEPSNVLLMTGRAAVIKRLVDIVNTVDKTGDREMVTVPLTYASAEDVAKLVNDLNKSDEKNALPSTMLANVVADGRTNSVVVSGEENARQRAVEMIRQLDRKQVVQGGTKVIYLKYAKALDLIEVLAGNGTSGNRNSSSSNASRPSSPRSGSSSNSNSSSGSSGSSSGSSSSSSSSSSMGFGSAFGSTSSSGGRTITIQGKEVTVRAHDQTNSLIITAPPDIMRDLEQVINQLDIRRPQVLVEAIIAEIQDADGLNLGIQWANKRAGMTQFTNTGIPISTAVIGTDQFRSNGTLTTAYASALSSFNGVTAGFYRGNWSMLLTALSSDSKNDVLATPSIVTLDNMEATFNVGQEVPVLTGSQTTSADNIFNTVERKTVGIKLRVKPQINEGDSVLLQIEQEVSSVADSNSSTNSSLGVTFNTRTVNNAVMVTNGETVVVGGLLDKTSVESNDKVPLLGDIPWLGSLFRSKSQEVRKRNLMLFLRPTIIRDPGQFQEASINKYRSFNNEQQQQRGEGNGVLDNNTLRLSGGNTYTFRQVQSSISDFYKPEGR
pspA (β-galactosidase activity) ([5]; OutS: +): 800
pspA (β-galactosidase activity) ([5]; OutS: − (empty pACT3 vector)): 1100
location of secretin in absence of pilotin [6]: mislocates to the inner membrane
outer membrane location / targeting [7]: promotes the outer membrane location
